Like-named read-outs stand apart in the source and are kept apart here.
Tests used:
[1] = biological target: T1, SIRT3 (Homo sapiens, UniProt Q9NTG7); experiment: Coupled enzymatic assay, acetylated MnSOD-K122 substrate; format: biochemical; conditions: 100 μM
T1 construct: purchased Enzo Life Sciences BML-AK557-0001
T1 sequence (Q9NTG7 1-399): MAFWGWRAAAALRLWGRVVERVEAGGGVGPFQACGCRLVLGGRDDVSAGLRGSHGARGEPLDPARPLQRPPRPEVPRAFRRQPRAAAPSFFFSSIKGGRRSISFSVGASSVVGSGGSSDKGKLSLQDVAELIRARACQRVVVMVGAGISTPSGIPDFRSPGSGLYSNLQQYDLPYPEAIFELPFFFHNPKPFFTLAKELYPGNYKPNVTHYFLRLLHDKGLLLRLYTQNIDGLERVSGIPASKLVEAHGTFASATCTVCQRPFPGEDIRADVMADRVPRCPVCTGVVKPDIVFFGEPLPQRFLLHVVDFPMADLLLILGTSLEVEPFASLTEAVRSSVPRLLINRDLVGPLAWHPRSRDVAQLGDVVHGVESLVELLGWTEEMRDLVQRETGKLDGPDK
From the text: Additionally, we used surface plasmon resonance (SPR) to measure the binding of SKLB-11A to immobilized SIRT3. […] We next evaluated the selectivity of SKLB-11A for different SIRT family members. […] We next examined the functional specificity of SKLB-11A using coupled enzymatic assays with isoform-specific, physiologically relevant substrates: acetylated p53-K381 for SIRT1, acetylated α-tubulin-K25 for SIRT2, acetylated MnSOD-K122 for SIRT3, and succinylated CPS1-K537 for SIRT5 (Supplementary Table S3). […] Using Schrödinger molecular docking simulations, we assessed the binding interactions of SKLB-11A with SIRT isoforms.

[2] = tested on: myocardial ischemia/reperfusion (I/R) injury model; experiment: Mouse model of myocardial I/R injury; format: in vivo, C57BL/6J mice
[3] = biological target: SIRT6 (Homo sapiens, UniProt Q8N6T7); experiment: SPR binding to SIRT6
Sequence of SIRT6 (Q8N6T7 whole entry, species assumed): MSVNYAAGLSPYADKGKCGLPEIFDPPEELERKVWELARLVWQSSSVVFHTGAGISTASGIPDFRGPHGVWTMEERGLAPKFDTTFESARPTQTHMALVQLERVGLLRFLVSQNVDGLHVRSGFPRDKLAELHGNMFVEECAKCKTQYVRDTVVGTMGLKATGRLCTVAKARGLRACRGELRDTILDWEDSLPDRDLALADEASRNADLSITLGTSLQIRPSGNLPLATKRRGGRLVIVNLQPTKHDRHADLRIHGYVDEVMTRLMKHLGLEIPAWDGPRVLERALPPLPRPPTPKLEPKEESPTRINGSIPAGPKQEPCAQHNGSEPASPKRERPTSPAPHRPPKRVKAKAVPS
Protocol: The affinity of SKLB-11A for SIRT1, SIRT2, SIRT3, SIRT5, and SIRT6 was determined using a Reichert 4SPR system (Reichert Technologies, Depew, NY, USA). Proteins at 200 μg/mL were immobilized on a dextran-coated sensor chip (13206066) until reaching ≥12,000 response units (RUs). A dual-flow channel setup was used, reserving one channel for blank controls. SKLB-11A was introduced at varying concentrations for binding and subsequent dissociation kinetic analysis. Data acquisition was at 25 °C utilizing a PBST running buffer (pH 7.4). The equilibrium dissociation constant (K d) was computed from steady-state affinity measurements using TraceDrawer software.

[4] = tested on: Dox-induced cardiotoxicity model; experiment: Mouse model of doxorubicin-induced cardiomyopathy; format: in vivo
Protocol: For the establishment of the experimental model, male C57BL/6J mice aged 8 weeks, with an average weight of 23 g, were utilized. The mice were administered varying dosages of SKLB-11A (10 and 20 mg/kg/day) or a corresponding volume of sterile saline via oral gavage over a period of 7 days. […] The sample size for each group consisted of eight specimens. Echocardiographic assessments were conducted at three distinct time points: baseline (day 0), post-treatment (day 7), and at the conclusion of the study (day 21). The experimental timeline was terminated on day 21.
Noninvasive transthoracic echocardiography was performed using a Vevo 3100 System with a 30-MHz transducer to assess cardiac function in mice. The procedure was conducted by an experienced technician who was blinded to the study groups. Mice were anesthetized with 1.5–2% isoflurane and underwent skin preparation. Two-dimensional guided M-mode echocardiography in the short axis view was used to measure left ventricular fractional shortening (FS) and left ventricular ejection fraction (EF).
H&E staining was used to evaluate pathological changes in key organs. Fixed tissues were dehydrated, embedded in paraffin, and sectioned into 4 μm slices. The sections were stained with hematoxylin for 10–15 min, washed with tap water for 2 min, differentiated for 30 s using hydrochloric acid and ethanol, and then washed with warm water for 5 min. After staining with eosin for 2 min, the sections were dehydrated and mounted with resin. All procedures followed the standard operating procedure (SOP) for pathological examination.

[5] = Pharmacokinetics in SD rats; format: in vivo, Sprague–Dawley (SD) rats; conditions: for MRT inf: read-out: MRT0–∞; for half-life: read-out: T1/2z (converted)
Protocol: Given the potential of SKLB-11A for treating myocardial injury, we further evaluated its pharmacokinetic profile in Sprague–Dawley (SD) rats (Supplementary Table S5). The pharmacokinetics were assessed following both intravenous injection (1 mg/kg) and intragastric administration (10 mg/kg) of SKLB-11A.

[6] = tested on: H9c2 cells; experiment: OGD/R injury model in vitro; format: cell-based; conditions: pretreatment for 24 h, 10 μM
Protocol: An in vitro oxygen-glucose deprivation (OGD) injury model was established as described in a previous study. OGD injury was induced by incubating cells in glucose-free DMEM under hypoxic conditions (94% N2, 1% O2, and 5% CO2) for 6 h. Before the hypoxic phase, cells were treated with SKLB-11A (10 μM). The cells were then incubated in normoxic conditions with normal medium at 37 °C for the indicated time of 24 h as reperfusion. Untreated cells were used as controls.

[7] = Sprague-Dawley, rat, in vivo, iv, i.v. 1 mg/kg
[8] = Sprague-Dawley, rat, in vivo, po, p.o. 10 mg/kg

COC(=O)c1c(N)n(Cc2ccc(F)cc2)c2nc3ccccc3nc12 [SKLB-11A, Methyl 2-amino-1-(4-fluorobenzyl)-1H-pyrrolo[2,3-b]quinoxaline-3-carboxylate]
effect on SIRT3 deacetylation activity [1]: pronounced activation | I/R-induced elevations in serum LDH, CK-MB, BNP ([2]; 20 mg/kg ig, 24 h after I/R surgery): partially reversed | infarct size ([2]; 20 mg/kg ig, Evans blue/TTC, 24 h after I/R, vs I/R group): significant reduction in infarcted areas | I/R-induced cardiac fibrosis ([2]; 20 mg/kg ig, Masson's trichrome, 28 d after I/R): markedly reduced | cardiac function (EF and FS) ([2]; 20 mg/kg/day, ig, 1 week, I/R mice): restored cardiac function | binding to SIRT6 [3]: no binding | left ventricular ejection fraction (EF) and fractional shortening (FS) ([4]; 10 or 20 mg/kg, ig, pretreatment, Dox mice, dose-dependent): significantly restored | body weight (Dox-induced weight loss) ([4]; Dox mice): partially reversed Dox-induced weight loss | mitochondrial respiration (basal and maximal) in heart tissues ([4]; Dox mice): restored mitochondrial respiration | serum markers of myocardial injury LDH, CK-MB, BNP ([4]; Dox mice): reduced serum markers of myocardial injury | myocardial structure, histology ([4]; Dox mice, H&E): preserved myocardial structure | toxicity at effective doses, organ histology (heart, liver, spleen, lungs, kidneys) ([4]; mice, H&E): no apparent toxicity | AUC(0-inf) [5, 7]: 185 ± 20 ng·h/mL | AUC(0-t) [5, 7]: 185 ± 19.9 ng·h/mL | Cmax [5, 7]: 255 ± 3.42 ng/mL | Tmax [5, 7]: 4.8 min | clearance ([5]; Sprague-Dawley, rat, in vivo, iv, i.v. 1 mg/kg, read-out: CLZ (converted)): 90.7 mL/min/kg | MRT inf [5, 7]: 43.2 ± 3.6 min | half-life [5, 7]: 36 ± 3.6 min | Vd ([5]; Sprague-Dawley, rat, in vivo, iv, i.v. 1 mg/kg, read-out: VZ): 4.66 ± 0.2 L/kg | AUC(0-inf) [5, 8]: 128 ± 29.2 ng·h/mL | AUC(0-t) [5, 8]: 123 ± 23.6 ng·h/mL | Cmax [5, 8]: 67.9 ± 13 ng/mL | Tmax [5, 8]: 15 min | MRT inf [5, 8]: 266 ± 107 min | half-life [5, 8]: 326 ± 156 min | VZ ([5]; p.o. 10 mg/kg): 39.99 ± 12.09 L/kg | OGD/R-induced mitochondrial dysfunction [6]: significantly ameliorated

From publication PMC12123458, “Unraveling Small Molecule-Mediated Sirtuin 3 Activation at a Distinct Binding Site for Cardioprotective Therapies” (ACS Central Science, 2025)
